The record followed here is patent US20230404971A1, “Combination Comprising Abemaciclib and 6-(2,4-Dichlorophenyl)-5-[4-[(3S)-1-(3-Fluoropropyl)Pyrrolidin-3-yl]Oxyphenyl]-8,9-Dihydro-7H-Benzo[7]Annulene-2-Carboxylic Acid” (Sanofi, priority 2020, published 2023).

In data set [1] the test system is MCF7-Y537S human breast cancer cell line xenograft. Briefly: Anti-tumor efficacy against subcutaneous MCF7-Y537S human breast cancer cell line xenograft in female nude mice. In kind it is in vivo, female BALB/c nude mice. Set-up: key to Biological Interpretation: Active: ΔT/ΔC≤40% is considered as therapeutically active; Very active: ΔT/ΔC<0% is considered as tumor regression (very active); Inactive: ΔT/ΔC>40% is considered as therapeutically inactive. The settings on record: for Tumor volume changes from baseline, Median: n = 7. The method, then:
In the present study, the anti-tumor efficacy of 6-(2,4-dichlorophenyl)-5-[4-[(3S)-1-(3-fluoropropyl)pyrrolidin-3-yl]oxyphenyl]-8,9-dihydro-7H-benzo[7]annulene-2-carboxylic acid (“compound (1)”), combined with abemaciclib, was investigated after 22 days treatment against a subcutaneous MCF7-Y537S human breast cancer cell line xenograft in female nude mice.
The treated groups included compound (1) at 20 mg/kg alone, abemaciclib at 70 mg/kg alone, and the combination of compound (1) and abemaciclib at the same dose and regime,
Compound (1) was orally dosed twice a day (BID) and abemaciclib was orally dosed once a day (QD) for 22 days. Anti-tumor efficacy was evaluated by tumor volume measurement.
Female BALB/c nude mice were obtained from Shanghai Sino-British SIPPR/BK Laboratory Animal Co., LTD (Shanghai, CHINA). Animals were allowed to acclimate for at least four days before the study enrollment. Mice were 6 to 8 weeks old and weighed between 18 and 24 grams at the beginning of the treatments. These animals were housed under conditions outlined in the guidelines approved by the Institutional Animal Care and Use Committee (IACUC) of WuXi AppTec following the guidance of the Association for Assessment and Accreditation of Laboratory Animal Care (AAALAC).
Parental MCF7 cells were obtained from the American Type Culture Collection (ATCC® HTB-22™). MCF7-Y537S (ESR1) cell line was MCF7 cells expressing the ER.Y537S variant that was generated by Sanofi Biology Discovery Group. Y537S mutation was introduced in ESR1 construct (GenBank NM_000125.3) by site directed mutagenesis (Toy W. et al., Cancer Discovery, 2017, 7, 277-287). The construct was transfected in MCF7 cells which were selected for their growth in absence of estradiol. MCF-Y537S is an ESR1 mutation that confers estrogen-independent activity to ERα (Estrogen Receptor alpha) and contributes to endocrine resistant disease (Robinson D. R. et al., Nat Genet., 2013, 45 (12), 1446-1451). The cells were grown in Eagle's Minimum Essential Medium (EMEM) supplemented with 10% fetal bovine serum (FBS), human Insulin, in 5% CO2 at 37° C. The cells were harvested in 0.25% Trypsin EDTA and washed by Phosphate Buffered Saline (PBS) and re-suspended in PBS with 75% Matrigel. The cells (20×10^6 cells/per mouse) were subcutaneously (SC) implanted into the right flank of female nude mice.
When the MCF7-Y537S tumors were established, the tumors were reserved as tumor stocks for fragment implantation. The tumors were serially propagated through fragment tissue transplantation subcutaneously. The fragment tumor tissues were subcutaneously implanted into the right flank of female nude mice. 28 mice were assigned in this experiment.
Abemaciclib (Manufacturer: Sanofi; Lot number: VAC.DLE20.006.1) was formulated in 40% SBE-β-CD in HCl 0.1N pH 3.0. Compound (1) was prepared in 5% Solutol HS15 (purchased from Sigma) at pH 3.0.
Dose volume for compound (1) and abemaciclib for oral administration: 10 ml/kg by oral gavage.
Doses: compound (1) at 20 mg/kg and abemaciclib at 70 mg/kg in the above volume.
The animals required for experiment (plus extra) were pooled and implanted with MCF7-Y537S tumor fragment tissues. On day 0 (20 days post implantation), the mice were pooled and randomly distributed to the treatment and control groups (7 mice per group), where median tumor volumes for each group was 173 mm^3. Treatments of compound (1) and abemaciclib were initiated on day 0. Compound (1) was orally administered at 20 mg/kg BID (8 hours apart) and abemaciclib was orally administered at 70 mg/kg QD, for 22 days. Animal body weight was assessed daily.
The dosages are expressed in mg/kg and based on daily body weight per animal. Vehicle treated animals were used as controls. Mice were checked daily and adverse clinical reactions noted. Individual mice were weighed daily until the end of the experiment. Mice would be euthanized when morbid or weight loss ≥20% was observed. […]
(In general: A xenograft is tissue or cells of one species grown in another, often human tumour cells in immunodeficient mice.)

Data set [2] is described as follows: Tolerability (body weight, deaths) in the MCF7-Y537S xenograft study. The format is in vivo. The method, then: The animals required for experiment (plus extra) were pooled and implanted with MCF7-Y537S tumor fragment tissues. […] Animal body weight was assessed daily.
The dosages are expressed in mg/kg and based on daily body weight per animal. Vehicle treated animals were used as controls. Mice were checked daily and adverse clinical reactions noted. Individual mice were weighed daily until the end of the experiment. Mice would be euthanized when morbid or weight loss ≥20% was observed. Tumors were measured with a caliper twice weekly until final sacrifice. When a tumor size reached approximately 2000 mm^3 or when there are animal health issues (40% area of a tumor ulcerated), animals would be euthanized and date of death recorded. Solid tumor volumes were estimated from two-dimensional tumor measurements and calculated according to the following equation: […]
Animal body weight included the tumor weight.

Where [3] appears, read: day 22, PO for 22 days, compound (1) 20 mg/kg BID, abemaciclib 70 mg/kg QD, alone or combined.

For the compound `CCN1CCN(Cc2ccc(Nc3ncc(F)c(-c4cc(F)c5nc(C)n(C(C)C)c5c4)n3)nc2)CC1` [Abemaciclib, N-{5-[(4-ethylpiperazin-1-yl)methyl]pyridin-2-yl}-5-fluoro-4-[4-fluoro-2-methyl-1-(propan-2-yl)-1H-benzimidazol-6-yl]pyrimidin-2-amine], the “Tumor volume changes from baseline, Median” value is 9.0 mm^3 in data set [1] (Day 4, compound (1) 20 mg/kg BID, abemaciclib 70 mg/kg QD, alone or combined); 40.0 mm^3 in data set [1] (Day 8, compound (1) 20 mg/kg BID, abemaciclib 70 mg/kg QD, alone or combined); 83.0 mm^3 in data set [1] (Day 11, compound (1) 20 mg/kg BID, abemaciclib 70 mg/kg QD, alone or combined); 119.0 mm^3 in data set [1] (Day 15, compound (1) 20 mg/kg BID, abemaciclib 70 mg/kg QD, alone or combined); 150.0 mm^3 in data set [1] (Day 18, compound (1) 20 mg/kg BID, abemaciclib 70 mg/kg QD, alone or combined); 199.0 mm^3 in data set [1] (Day 22, compound (1) 20 mg/kg BID, abemaciclib 70 mg/kg QD, alone or combined). In data set [1] (animals with complete regression / animals in group, 22 days treatment), the “Regressions Complete” value was 0/7. In data set [1] (animals with partial regression / animals in group, 22 days treatment), the “Regressions Partial” value is listed as 0/7. Moreover, the “Biological Interpretation” value in data set [1] (based on ΔT/ΔC at day 22) is reported as “Active”. In addition, in data set [1] (setting [3]), the “Median % of regressions on day 22” value was 0%. Besides, the “ΔT/ΔC in % at day 22” value in data set [1] (setting [3]) came out at 19%. Also, the “Anti-tumor effect on tumor growth (in words)” value in data set [1] (day 22, versus control) was “statistically significant anti-tumor efficacy”. The Body weight loss result in data set [2] (compound (1) 20 mg/kg BID, abemaciclib 70 mg/kg QD, alone or combined, 22 days, PO) is on record as “no significant body weight loss”. Further, the “Unscheduled death (Day of death)” value in data set [2] (deaths / animals in group, 22 days treatment) is recorded as 0/7.
